In patent US11952330B2, “Antibiotic ammonium compounds and methods for the treatment of bacterial infections” (priority 2019, dated 2024):

Legend:
A. baumannii = test: MIC by broth dilution, A. baumannii; type: cell-based; conditions: Acinetobacter baumannii; Mueller-Hinton broth, overnight 37° C.; Table 1; read-out: MIC (μg/mL) A. baumannii
Method: (§1) The antibacterial efficacy of the ammonium compounds was assessed. Minimum inhibitory concentrations (MICs) were determined by broth dilution method. Dilutions of each compound, ranging from 1 μg/mL to 256 μg/mL (final concentrations) were prepared in Mueller-Hinton broth. Compound dilutions were added to wells of a 96-well plate, with the concentration of the compound increasing 2-fold by row. Each well contained 5×10^5 CFU/ml of target bacterium in a total volume of 100 μl. Plates were incubated overnight at 37° C. The following day, plates were evaluated for a visual change in growth to determine the MIC. The concentration value corresponding to the first row that no longer had visible bacterial growth, as evaluated by turbidity in the wells, was recorded as the MIC. MIC values were representative of at least biological duplicates, each made up of technical triplicates. The antibacterial efficacy of ammonium compounds in the presence of human plasma was assessed. Minimum inhibitory concentrations (MICs) were determined by broth dilution method. Dilutions of each compound, ranging from 1 μg/mL to 256 μg/mL (final concentrations) were prepared in Mueller-Hinton broth. For the plasma containing samples, compound dilutions were made in Mueller-Hinton broth and supplemented with 5% (final %) human plasma (esterases). Compound dilutions were added to wells of a 96-well plate, with the concentration of the compound increasing 2-fold by row. Each well contained 5×10^5 CFU/mL of target bacterium in a total volume of 100 μL. Plates were incubated overnight at 37° C. The following day, plates were evaluated for a visual change in growth to determine the MIC. The concentration value corresponding to the first row that no longer had visible bacterial growth, as evaluated by turbidity in the wells, was recorded as the MIC. MIC values were representative of at least biological duplicates, each made up of technical triplicates.

S. aureus = test: MIC by broth dilution, S. aureus; type: cell-based; conditions: Staphylococcus aureus; Mueller-Hinton broth, overnight 37° C.; Table 1; read-out: MIC (μg/mL) S. aureus
Method: as §1

Row | MIC (A. baumannii) [µg/mL] | MIC (S. aureus) [µg/mL] | Structure (SMILES)
1 | 3 to 30 | 3 to 30 | CCCCCCCCOc1ccccc1C(=O)Nc1ccc(C(=O)OCC[N+](C)(CC)CC)cc1.[Br-] [Compound 10, N,N-diethyl-N-methyl-2-((4-(2-(octyloxy)benzamido)benzoyl)oxy)ethan-1-aminium bromide, reference compound]
2 | > 30 | 3 to 30 | CCCCCCCCOc1ccccc1C(=O)Nc1cccc(C(=O)OCC[N+](C)(CC)CC)c1.[Br-] [Compound 12, N,N-Diethyl-N-methyl-2-((3-(2-(octyloxy)benzamido)benzoyl)oxy)ethan-1-aminium bromide]
3 | > 30 | 3 to 30 | CCCCCCCCOc1ccccc1C(=O)Nc1ccccc1C(=O)OCC[N+](C)(CC)CC.[Br-] [Compound 13, N,N-Diethyl-N-methyl-2-((2-(2-(octyloxy)benzamido)benzoyl)oxy)ethan-1-aminium bromide]
4 | > 30 | > 30 | CCCCCCCCOc1cccc(C(=O)Nc2ccc(C(=O)OCC[N+](C)(CC)CC)cc2)c1OCCCCCCCC.[Br-] [Compound 14, 2-((4-(2,3-Bis(octyloxy)benzamido)benzoyl)oxy)-N,N-diethyl-N-methylethan-1-aminium bromide]
5 | > 30 | > 30 | CCCCCCCCOc1ccc(C(=O)Nc2ccc(C(=O)OCC[N+](C)(CC)CC)cc2)c(OCCCCCCCC)c1.[Br-] [Compound 15, 2-((4-(2,4-Bis(octyloxy)benzamido)benzoyl)oxy)-N,N-diethyl-N-methylethan-1-aminium bromide]
6 | > 30 | > 30 | CCCCCCCCOc1ccc(OCCCCCCCC)c(C(=O)Nc2ccc(C(=O)OCC[N+](C)(CC)CC)cc2)c1.[Br-] [Compound 16, 2-((4-(2,5-Bis(octyloxy)benzamido)benzoyl)oxy)-N,N-diethyl-N-methylethan-1-aminium bromide]
7 | > 30 | > 30 | CCCCCCCCOc1cc(OCCCCCCCC)cc(C(=O)Nc2ccc(C(=O)OCC[N+](C)(CC)CC)cc2)c1.[Br-] [Compound 18, 2-((4-(3,5-Bis(octyloxy)benzamido)benzoyl)oxy)-N,N-diethyl-N-methylethan-1-aminium bromide]
8 | > 30 | > 30 | CCCCCOc1ccccc1C(=O)Nc1ccc(C(=O)OCC[N+](C)(CC)CC)cc1.[Br-] [Compound 20, N,N-Diethyl-N-methyl-2-((4-(2-(pentyloxy)benzamido)benzoyl)oxy)ethan-1-aminium bromide]
9 | > 30 | 3 to 30 | CCCCCCOc1ccccc1C(=O)Nc1ccc(C(=O)OCC[N+](C)(CC)CC)cc1.[Br-] [Compound 21, N,N-Diethyl-2-((4-(2-(hexyloxy)benzamido)benzoyl)oxy)-N-methylethan-1-aminium bromide]
10 | > 30 | 3 to 30 | CCCCCCCOc1ccccc1C(=O)Nc1ccc(C(=O)OCC[N+](C)(CC)CC)cc1.[Br-] [Compound 22, N,N-Diethyl-2-((4-(2-(heptyloxy)benzamido)benzoyl)oxy)-N-methylethan-1-aminium bromide]
11 | 3 to 30 | 3 to 30 | CCCCCCCCCOc1ccccc1C(=O)Nc1ccc(C(=O)OCC[N+](C)(CC)CC)cc1.[Br-] [Compound 23, N,N-Diethyl-N-methyl-2-((4-(2-(nonyloxy)benzamido)benzoyl)oxy)ethan-1-aminium bromide]
12 | > 30 | 3 to 30 | CCCCCCCCCCOc1ccccc1C(=O)Nc1ccc(C(=O)OCC[N+](C)(CC)CC)cc1.[Br-] [Compound 24, 2-((4-(2-(Decyloxy)benzamido)benzoyl)oxy)-N,N-diethyl-N-methylethan-1-aminium bromide]
13 | > 30 | 3 to 30 | CCCCCCCCCCCOc1ccccc1C(=O)Nc1ccc(C(=O)OCC[N+](C)(CC)CC)cc1.[Br-] [Compound 25, N,N-Diethyl-N-methyl-2-((4-(2-(undecyloxy)benzamido)benzoyl)oxy)ethan-1-aminium bromide]
14 | > 30 | 3 to 30 | CCCCCCCCCCCCOc1ccccc1C(=O)Nc1ccc(C(=O)OCC[N+](C)(CC)CC)cc1.[Br-] [Compound 26, 2-((4-(2-(Dodecyloxy)benzamido)benzoyl)oxy)-N,N-diethyl-N-methylethan-1-aminium bromide]
15 | > 30 | < 3 | CCCCCCCCCCCCCOc1ccccc1C(=O)Nc1ccc(C(=O)OCC[N+](C)(CC)CC)cc1.[Br-] [Compound 27, N,N-Diethyl-N-methyl-2-((4-(2-(tridecyloxy)benzamido)benzoyl)oxy)ethan-1-aminium bromide]
16 | > 30 | 3 to 30 | CCCCCCCCCCCCCCOc1ccccc1C(=O)Nc1ccc(C(=O)OCC[N+](C)(CC)CC)cc1.[Br-] [Compound 28, N,N-Diethyl-N-methyl-2-((4-(2-(tetradecyloxy)benzamido)benzoyl)oxy)ethan-1-aminium bromide]
17 | > 30 | 3 to 30 | CCCCCCCCOc1ccccc1C(=O)Nc1ccc(C(=O)OCC[N+](CC)(CC)CC)cc1.[Br-] [Compound 29, N,N,N-Triethyl-2-((4-(2-(octyloxy)benzamido)benzoyl)oxy)ethan-1-aminium bromide]
18 | > 30 | 3 to 30 | CCCCCCCCC[N+](CC)(CC)CCOC(=O)c1ccc(NC(=O)c2ccccc2OCCCCCCCC)cc1.[Br-] [Compound 30, N,N-Diethyl-N-(2-((4-(2-(octyloxy)benzamido)benzoyl)oxy)ethyl)nonan-1-aminium bromide]
19 | > 30 | > 30 | CCCCCCCCOc1ccc(C(=O)Nc2ccc(C(=O)OCC[N+](C)(CC)CC)cc2)cc1.[Br-] [Compound 31, N,N-Diethyl-N-methyl-2-((4-(4-(octyloxy)benzamido)benzoyl)oxy)ethan-1-aminium bromide]
20 | > 30 | 3 to 30 | CCCCCCCCOc1cccc(C(=O)Nc2ccc(C(=O)OCC[N+](C)(CC)CC)cc2)c1.[Br-] [Compound 32, N,N-Diethyl-N-methyl-2-((4-(3-(octyloxy)benzamido)benzoyl)oxy)ethan-1-aminium bromide]
21 | 3 to 30 | < 3 | CCCCCCCCOc1ccccc1C(=O)Nc1ccc(C(=O)OCC[N+](CC)(CC)CCC)cc1.[Br-] [Compound 33, N,N-Diethyl-N-(2-((4-(2-(octyloxy)benzamido)benzoyl)oxy)ethyl)propan-1-aminium bromide]
22 | 3 to 30 | < 3 | CCCCCCCCOc1ccccc1C(=O)Nc1ccc(C(=O)OCC[N+](CC)(CC)CCCC)cc1.[Br-] [Compound 34, N,N-Diethyl-N-(2-((4-(2-(octyloxy)benzamido)benzoyl)oxy)ethyl)butan-1-aminium bromide]
23 | 3 to 30 | < 3 | CCCCCCCCOc1ccccc1C(=O)Nc1ccc(C(=O)OCC[N+](CC)(CC)CCCCC)cc1.[Br-] [Compound 35, N,N-Diethyl-N-(2-((4-(2-(octyloxy)benzamido)benzoyl)oxy)ethyl)pentan-1-aminium bromide]
24 | 3 to 30 | < 3 | CCCCCCCCOc1ccccc1C(=O)Nc1ccc(C(=O)OCC[N+](CC)(CC)CCCCCC)cc1.[Br-] [Compound 36, N,N-Diethyl-N-(2-((4-(2-(octyloxy)benzamido)benzoyl)oxy)ethyl)hexan-1-aminium bromide]
25 | 3 to 30 | < 3 | CCCCCCCCOc1ccccc1C(=O)Nc1ccc(C(=O)OCC[N+](CC)(CC)CCCCCCC)cc1.[Br-] [Compound 37, N,N-Diethyl-N-(2-((4-(2-(octyloxy)benzamido)benzoyl)oxy)ethyl)heptan-1-aminium bromide]
26 | > 30 | < 3 | CCCCCCCCOc1ccccc1C(=O)Nc1ccc(C(=O)OCC[N+](CC)(CC)CCCCCCCC)cc1.[Br-] [Compound 38, N,N-Diethyl-N-(2-((4-(2-(octyloxy)benzamido)benzoyl)oxy)ethyl)octan-1-aminium bromide]
27 | > 30 | 3 to 30 | CCCCCCCCOc1ccccc1C(=O)Nc1ccc(C(=O)OCC[N+](CC)(CC)Cc2ccc([N+](=O)[O-])cc2)cc1.[Br-] [Compound 39, N,N-Diethyl-N-(4-nitrobenzyl)-2-((4-(2-(octyloxy)benzamido)benzoyl)oxy)ethan-1-aminium bromide]
28 | > 30 | < 3 | CCCCCCCCOc1ccccc1C(=O)Nc1ccc(C(=O)OCC[N+](CC)(CC)Cc2cccc(C(F)(F)F)c2)cc1.[Br-] [Compound 40, N,N-Diethyl-2-((4-(2-(octyloxy)benzamido)benzoyl)oxy)-N-(3-(trifluoromethyl)-benzyl)ethan-1-aminium bromide]

Row | Structure (SMILES) | MIC (A. baumannii) [µg/mL] | MIC (S. aureus) [µg/mL]
29 | CCCCOc1ccccc1C(=O)Nc1ccc(C(=O)OCC[N+](C)(CC)CC)cc1.[Br-] [Compound 19, 2-((4-(2-Butoxybenzamido)benzoyl)oxy)-N,N-diethyl-N-methylethan-1-aminium bromide] | > 30 | > 30
